Experimental data taken from publication PMC5845537 (Frontiers in Pharmacology, 2018).

Experiments:
Long-Evans rats = assay: Attentional set-shifting task (AST) in subchronic PCP-treated rats; format: in vivo, rat
Experimental: (§1) Subchronic PCP treatment: The subPCP administration regimen used in rats was conducted as described in ([Goetghebeur and Dias, 2009]), which is a reliable method for inducing deficits in our hands. Rats in the subPCP experiments received injections of 5 mg/mL PCP or vehicle (saline) s.c. at a 1 mL/kg injection volume twice per day for 7 days. […] The mouse subPCP regimen was conducted as described in [Pedersen et al. (2014)]. Briefly, mice received vehicle or PCP (1.3 mg/mL concentration, 10 mL/kg injection volume) s.c once per day for 14 days followed by a 7-day washout prior to experimentation.
Each test used male Long-Evans rats (Charles River, United States) aged 5–6 weeks when arriving at the research facility.
The attentional set-shifting test (AST) methods used here were adapted from [Goetghebeur and Dias (2009)]. The apparatus used for the AST test was a 44 cm × 64 cm × 30 cm black non-transparent Perspex test box, divided into 3 equal-sized areas (a starting area separated from a choice area subdivided in two). In the choice area, two 11 cm diameter terracotta pots were placed recessed into the box floor (with a 2 cm lip remaining above the floor) and separated by a divider. Odor (oils from The Body Shop®, United Kingdom) and media cues (not previously presented to the rats) were added to the pots.
Beginning on day 3 after the cessation of PCP administration, rats were subjected to a habituation period and trained to dig for a diet reward (half a Honey Loop cereal, Nestlé®) in terracotta pots filled with sawdust. On day 7 of PCP washout, rats were subjected to a single training session in which they were required to discriminate between two pots in order to find the reward. These discriminations were either based on differences in the digging media or the pot’s odor. On day 8 rats were presented with a series of increasingly difficult discriminations: a simple discrimination (SD), a compound discrimination (CD), two intra-dimensional shifts (ID1, ID2), an intra-dimensional shift reversal (ID2R), an extra-dimensional shift (ED) and an extra-dimensional shift reversal (EDR; see Table 1). Rats were required to meet a training criterion before moving on to a new discrimination type (for specifics, see Statistical Analysis, below).
The first trial of each discrimination stage was a discovery trial in which rats were allowed to dig in both pots, and to self-correct if digging in the wrong pot. Rats were only given one discovery trial. The discovery trial was included in the trials to criterion if the rat dug first in the correct pot, but not if the rat self-corrected an incorrect initial dig.
In the acute vortioxetine study, prior to the start of behavioral experiments on Day 8 of washout from PCP treatment, animals were randomly administered either 20% CD (Veh), […], or 64 mg/kg modafinil 30 min p.o. as described above (included as a positive control). Thus, the treatment groups in the acute vortioxetine study were as follows: Veh/Veh, PCP/Veh, PCP/1 mg/kg vortioxetine, PCP/3 mg/kg vortioxetine, PCP/10 mg/kg vortioxetine, or PCP/64 mg/kg modafinil.
Food dosing lasted from the first day of sub-chronic PCP administration and until the last day of the washout period (total of 14 days). After the end of the washout period where behavioral testing started, rats were fed with the same conditioned diet, however, under food restriction (∼11 g of diet per day per rat). In addition, some PCP-treated animals were fed vehicle food, but received acute injections of either 10 mg/kg vortioxetine, or 64 mg/kg modafinil, as described above. The treatment groups for the subchronic vortioxetine administration study were as follows: Veh/Veh, PCP/Veh, PCP/0.22 g/kg vortioxetine food, PCP/1.8 g/kg vortioxetine food, PCP/10 mg/kg vortioxetine 1 h s.c., or PCP/64 mg/kg 30 min p.o.
A third experiment was conducted to examine the effects of acute SERT inhibition or 5-HT3 receptor antagonism on subPCP-induced AST impairments. […]

C57BL/6NCrlBr mice = assay: Mouse object placement (OP) task after subchronic PCP; format: in vivo
Experimental: as §1
Object placement and OR tasks in mice were executed in Perspex boxes measuring 40 × 40 cm with dark gray walls and a white floor. The tests were conducted during the light phase, yet in a subdued light (≈20 lux) and with the radio turned on in the background. Each trial was recorder by a camera mounted above the test arenas and later scored manually.
Objects in the mouse OP task consisted of small stork sculptures made of plaster, which were 11.5 cm in height, with a roughly rectangle-shaped base 7.5 cm in length and 4.8 cm in width. For the mouse OR task, objects consisted of (1) small cylindrical pepper mills (purchased empty, having never contained spice) made of clear plastic (10.5 cm in height, 4.5 cm diameter), and (2) small salt shakers made of light blue glass (again, purchased empty; 11.5 cm in height, 4.5 cm diameter). […]
The primary dependent measure for the OR and object placement tasks was a novel object or novel placement preference score, which were calculated from raw object investigation times using the following equation: Preference Score = ITN/(ITN + ITF)^∗100, where ITN represents the investigation time for the novel object or placement, and ITF represents the investigation for the familiar object or placement. Total exploration times from the information and test trials were analyzed for OP and OR experiments. Preference score and total exploration time data was analyzed for treatment group differences using a one-way between-subjects ANOVA. […]

[1] = subchronic vortioxetine study, subPCP vs Veh/Veh, p < 0.001
[2] = subchronic high-dose 1.8 g vortioxetine/kg food weight p.o., p < 0.001
[3] = subchronic low-dose 0.18 g vortioxetine/kg food weight p.o., p < 0.001
[4] = subchronic vortioxetine study, acute 10 mg/kg 1 h s.c., p < 0.001

Row | Compound | trials to reach criterion, EDR discrimination (Long-Evans rats; acute vortioxetine study, subPCP/vehicle vs vehicle/vehicle) | trials to reach criterion, ED discrimination (Long-Evans rats; acute vortioxetine study, subPCP/vehicle vs vehicle/vehicle, PCP 5 mg/kg s.c. twice per day 7 days, 7-day washout, p < 0.01) | trials to reach criterion, EDR discrimination (Long-Evans rats; ondansetron/escitalopram study, subPCP vs vehicle/vehicle) | trials to reach criterion, ED discrimination (Long-Evans rats; ondansetron/escitalopram study, subPCP vs vehicle/vehicle, p < 0.001) | trials to reach criterion, ED discrimination (Long-Evans rats; [1]) | trials to reach criterion, EDR discrimination (Long-Evans rats; [1]) | novel placement preference score (C57BL/6NCrlBr mice; subPCP/vehicle vs vehicle/vehicle mice, p < 0.01) | reversal of subPCP-induced impairment, ED discrimination (trials to criterion) (Long-Evans rats; acute vortioxetine study, 1 mg/kg 1 h s.c., vs PCP/Veh) | reversal of subPCP-induced impairment, ED discrimination (trials to criterion) (Long-Evans rats; acute vortioxetine study, 3 mg/kg 1 h s.c., vs PCP/Veh) | reversal of subPCP-induced impairment, ED discrimination (trials to criterion) (Long-Evans rats; acute vortioxetine study, 10 mg/kg 1 h s.c., vs PCP/Veh) | reversal of subPCP-induced impairment, EDR discrimination (trials to criterion) (Long-Evans rats; acute vortioxetine study, acute 1, 3, 10 mg/kg 1 h s.c., vs PCP/Veh) | attenuation of subPCP-induced impairment, ED discrimination (Long-Evans rats; [2]) | attenuation of subPCP-induced impairment, EDR discrimination (Long-Evans rats; [2]) | attenuation of subPCP-induced impairment, ED discrimination (Long-Evans rats; [3]) | attenuation of subPCP-induced impairment, EDR discrimination (Long-Evans rats; [3]) | normalization of AST performance in subPCP-treated rats, ED (Long-Evans rats; [4]) | normalization of AST performance in subPCP-treated rats, EDR (Long-Evans rats; [4]) | attenuation of subPCP-induced object placement task impairment (C57BL/6NCrlBr mice; subPCP-treated mice, 10 mg/kg s.c. bolus plus seven days 0.6 g/kg chow, p < 0.05) | object placement task performance vs vehicle/vehicle (C57BL/6NCrlBr mice; vortioxetine/vehicle group, mice without PCP)
1 | Cl.c1ccc(C2(N3CCCCC3)CCCCC2)cc1 [PCP, 1-(1-phenylcyclohexyl)-piperidine hydrochloride] | significant increases | significant increase | failed to induce a significant increase | significant increase | significant increase | significant increase | significantly reduced novel placement preference scores |  |  |  |  |  |  |  |  |  |  |  | 
2 | Cc1ccc(Sc2ccccc2N2CCNCC2)c(C)c1 [vortioxetine] |  |  |  |  |  |  |  | significantly reversed | significantly reversed | significantly reversed | neither acute vortioxetine nor modafinil significantly reversed | significantly attenuated | significantly attenuated | significantly attenuated | significantly attenuated | significant normalization | significant normalization | significantly attenuated | did not perform significantly better
